For experiment [1], the target named is T1, Orexin receptor type 2 (Homo sapiens) (UniProt O43614).
T1 sequence (whole entry): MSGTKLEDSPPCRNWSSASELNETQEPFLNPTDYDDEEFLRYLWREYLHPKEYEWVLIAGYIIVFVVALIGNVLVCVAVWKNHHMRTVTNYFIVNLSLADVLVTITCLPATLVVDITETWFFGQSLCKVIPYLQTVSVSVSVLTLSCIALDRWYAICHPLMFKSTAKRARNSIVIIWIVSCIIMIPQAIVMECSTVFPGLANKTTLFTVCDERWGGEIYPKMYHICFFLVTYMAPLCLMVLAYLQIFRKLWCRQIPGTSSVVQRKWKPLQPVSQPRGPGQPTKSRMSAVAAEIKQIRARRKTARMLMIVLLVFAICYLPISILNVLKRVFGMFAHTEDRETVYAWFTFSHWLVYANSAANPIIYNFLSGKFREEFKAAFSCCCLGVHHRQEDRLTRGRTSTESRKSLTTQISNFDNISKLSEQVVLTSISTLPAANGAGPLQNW
As to the kind of experiment: Agonist activity at human orexin 2 receptor expressed in CHO cells assessed as increase in calcium mobilization incubated for 120 secs by Fluo-4AM dye based fluorescence assay. The experiment is classed as functional, cell-based. The settings on record: time 120.0 sec. (Calcium flux is commonly read through the fluorescence of an indicator in the cells.)

The target in experiment [2] is T2, Orexin/Hypocretin receptor type 1 (Homo sapiens, UniProt O43613).
T2 sequence (O43613 whole entry): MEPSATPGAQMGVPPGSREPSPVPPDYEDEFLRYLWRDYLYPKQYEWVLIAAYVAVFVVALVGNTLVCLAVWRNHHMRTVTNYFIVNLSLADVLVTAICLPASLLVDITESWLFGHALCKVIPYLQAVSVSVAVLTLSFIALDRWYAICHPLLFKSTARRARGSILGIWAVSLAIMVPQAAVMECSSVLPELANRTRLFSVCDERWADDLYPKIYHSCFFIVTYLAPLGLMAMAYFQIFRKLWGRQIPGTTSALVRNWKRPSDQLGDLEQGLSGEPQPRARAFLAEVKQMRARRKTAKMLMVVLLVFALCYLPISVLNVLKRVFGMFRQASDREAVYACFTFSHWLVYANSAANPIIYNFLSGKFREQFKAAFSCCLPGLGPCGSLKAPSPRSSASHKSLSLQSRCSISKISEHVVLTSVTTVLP
As to the kind of experiment: (§1) Displacement of [3H]-[…] from human orexin 1 receptor expressed in CHO cells incubated for 2 hrs by whole cell radioligand binding assay. The experiment is classed as cell-based.

Experiment [3] has as its target T3, Orexin/Hypocretin receptor type 1 (Homo sapiens) (UniProt O43613).
T3 sequence (whole entry): T2 sequence (O43613 whole entry)
Described as §1. The format is cell-based.

The next experiment is filed under the species Homo sapiens. The experiment is described as follows: Displacement of [3H]-EMPA from human orexin 2 receptor expressed in CHO cells incubated for 2 hrs by whole cell radioligand binding assay. The experiment is classed as cell-based. In general terms: Loss of bound radioactivity is the signal in a displacement assay; it reports binding, not function.

Active and inactive are the calls of the source. Bounds are passed on as bounds.

Turning to `O=C(C1=NN([C@H]2CCS(=O)(=O)C2)C(=O)CC1)N(CCc1ccccc1)c1nc2ccccc2s1`, the pEC50 entry in experiment [1] is “inactive”. Further, the IC50 (as a rule, the midpoint of a concentration-inhibition curve) in experiment [2] was greater than 100 µM.

As for `Nc1cc(-c2ncccc2C(=O)N2C[C@H]3CC[C@@H]2C3)c2cc[nH]c2n1`, the pKi result (in experiment [3]; in the experiment listed under Homo sapiens) was “inactive” throughout.

For `Cc1[nH]c2ccccc2c1[C@@H]1c2ccccc2C(=O)N1CCC(=O)N1CCN(c2ccccn2)CC1`, the pEC50 entry in experiment [1] is “inactive”. Besides, in experiment [2], the IC50 is greater than 100 µM.

With `O=C(COc1ccc(-c2ccccc2)cc1)c1ccc(O)cc1O`, in experiment [1], the pEC50 result is “inactive”. The pKi entry (in experiment [3]; in the experiment filed under Homo sapiens) was “inactive” each time.

Consider `Cc1cc(C(C)(C)C)cc(C)c1Cn1cnc2c1c(=O)n(C)c(=O)n2C`, for which the pKi result (in experiment [3]; in the experiment filed under Homo sapiens) was “inactive” throughout.

As to `Cc1cccc(-n2cc(C(=O)N3CCC[C@@H]([n+]4cc[nH]c4)C3)nn2)c1`, the pKi entry (in experiment [3]; in the experiment listed under Homo sapiens) was “inactive” in each case.

Take `COc1ccc2c(c1)c1c(c(=O)n(Cc3ccccc3)c(=O)n1Cc1cc(=O)n3ccccc3n1)n2C`: the pKi result (in experiment [3]; in the experiment listed under Homo sapiens) was “inactive” throughout.

Turning to `C[C@H](Cc1cnccn1)n1cc(-c2ccnc3ccccc23)nn1`, the pKi entry (in experiment [3]; in the experiment listed under Homo sapiens) was “inactive” in each case.

In the case of `COc1cccc(C(=O)COc2ccc3c(C)c(C)c(=O)oc3c2)c1`, the pKi result (in experiment [3]; in the experiment listed under Homo sapiens) was “inactive” in each case.

Take `COc1cc([C@H]2c3c(oc4ccc(Cl)cc4c3=O)C(=O)N2Cc2ccccc2)ccc1O`: the pKi result (in experiment [3]; in the experiment listed under Homo sapiens) was “inactive” each time.

In the case of `CCc1cc2c(=O)c(-c3ccc4c(c3)OCCCO4)coc2cc1OC(=O)N1CCOCC1`, the pKi entry (in experiment [3]; in the experiment listed under Homo sapiens) was “inactive” throughout.

`O=C(CCc1nc(-c2ccccn2)no1)OCc1ccccn1`: the pKi entry (in experiment [3]; in the experiment listed under Homo sapiens) was “inactive” throughout.

Turning to `O=S(=O)(c1ccc(-c2noc(-c3ccco3)n2)cc1)N1CCCCC1`, the pKi entry (in experiment [3]; in the experiment filed under Homo sapiens) was “inactive” throughout.

With `C=CCOc1cccc([C@H]2c3c(oc4ccc(C)cc4c3=O)C(=O)N2Cc2ccco2)c1`, the pKi entry (in experiment [3]; in the experiment listed under Homo sapiens) was “inactive” in each case.

As to `O=C(c1sc2cccc(F)c2c1Cl)N1CCN(Cc2ccco2)CC1`, the pEC50 result in experiment [1] is “inactive”.

Turning to `Cc1ccccc1OC[C@@H]1CCCN(C(=O)CCc2nc(-c3ccccn3)no2)C1`, the pEC50 result in experiment [1] was “inactive”. For the same molecule, in experiment [2], the Ki (commonly the equilibrium dissociation constant of an inhibitor or competing ligand from its target) is 15.1 µM.

On to `N[C@H]1C[C@@H](C(=O)O)N(C(=O)c2ccccc2OCc2ccccc2)C1`, for which the pKi result (in experiment [3]; in the experiment listed under Homo sapiens) was “inactive” in each case.

As for `COc1cc(=O)n2c(c1C(=O)N(C)[C@@H](C)c1ccco1)CCN(C(=O)c1c(F)cccc1F)CC2`, the pKi result (in experiment [3]; in the experiment filed under Homo sapiens) was “inactive” in each case.

`O=C1NC(=O)C(=Cc2c(OCc3ccccc3F)ccc3ccccc23)C(=O)N1`: the pEC50 entry in experiment [1] was “inactive”.

Take `CCOC(=O)c1cc(C(=O)N[C@@H](C)c2ccccc2)c(C)[nH]c1=O`: the pKi entry (in experiment [3]; in the experiment filed under Homo sapiens) was “inactive” throughout.

As to `O=C(c1ccc(Cl)c(N2CCCC2=O)c1)N1CCN(Cc2ccc3c(c2)CCO3)CC1`, the pKi entry (in experiment [3]; in the experiment filed under Homo sapiens) was “inactive” each time.

On to `COc1ccc([C@H]2CCCN2C(=O)c2ccc(OCc3cn4ccccc4n3)cc2)c(OC)c1`, for which the pEC50 entry in experiment [1] is “inactive”. In addition, the Ki in experiment [2] was 20.9 µM.

For the molecule `CS(=O)(=O)N1CCc2cc(S(=O)(=O)N3CCN(Cc4ccc5c(c4)OCO5)CC3)ccc21`, the pKi result (in experiment [3]; in the experiment filed under Homo sapiens) was “inactive” in each case.

As for `O=C(CCCN1C(=O)c2cccc3cccc(c23)C1=O)Oc1ccc(F)cc1`, the pKi entry (in experiment [3]; in the experiment listed under Homo sapiens) was “inactive” in each case.

In the case of `COc1ccc(-n2nc(C(=O)NCCc3ccc(Cl)cc3)c3c4ccccc4n(C)c3c2=O)cc1`, the pKi entry (in experiment [3]; in the experiment filed under Homo sapiens) was “inactive” each time.

In the case of `COc1ccc(CN2C(=O)c3ccccc3C2=O)cc1C(=O)OCc1cc(=O)n2ccsc2n1`, the pKi entry (in experiment [3]; in the experiment filed under Homo sapiens) was “inactive” throughout.

With `O=C(c1ccc(N2C(=O)CCC2=O)cc1)N1CCN(Cc2nc(C3CC3)cs2)CC1`, the pKi entry (in experiment [3]; in the experiment filed under Homo sapiens) was “inactive” in each case.

Regarding `Cc1nn(-c2ccccc2)c(C)c1C(=O)O[C@@H](C(N)=O)c1ccccc1`, the pKi result (in experiment [3]; in the experiment filed under Homo sapiens) was “inactive” each time.

As for `O=C(OCC(=O)N1N=C(c2ccc(Cl)cc2)C[C@H]1c1ccco1)c1ccc(-n2cccn2)nc1`, the pKi result (in experiment [3]; in the experiment listed under Homo sapiens) was “inactive” each time.

In the case of `CCOc1ccc(-c2n[nH]c3c2[C@H](c2ccccc2OC)NC3=O)cc1`, the pKi entry (in experiment [3]; in the experiment listed under Homo sapiens) was “inactive” in each case.

On to `Cn1ccc2c(C(=O)N3CCN(Cc4cscn4)CC3)cccc21`, for which the pKi entry (in experiment [3]; in the experiment listed under Homo sapiens) was “inactive” in each case.

Consider `O=C(OCCCn1c(=O)[nH]c2ccccc21)c1ccc2c(c1)C(=O)N(c1ccc(Cl)cc1)C2=O`, for which the pKi result (in experiment [3]; in the experiment filed under Homo sapiens) was “inactive” each time.

As to `Cc1ccc(N2CCCN(C(=O)c3cn(C)c4ccccc34)CC2)nn1`, the pEC50 result in experiment [1] is “inactive”. Also, the half-inhibitory concentration (IC50) in experiment [2] was greater than 100 µM.

On to `CCc1c(C)c2ccc(OCC(=O)c3ccc(F)cc3)cc2oc1=O`, for which the pKi result (in experiment [3]; in the experiment filed under Homo sapiens) was “inactive” in each case.

Turning to `Cc1cc(=O)oc2cc(OCC(=O)c3cccc4ccccc34)ccc12`, the pKi result (in experiment [3]; in the experiment listed under Homo sapiens) was “inactive” in each case.

Turning to `COc1cccc([C@H]2c3c(oc4ccccc4c3=O)C(=O)N2Cc2ccccc2)c1`, the pKi entry (in experiment [3]; in the experiment listed under Homo sapiens) was “inactive” in each case.

Turning to `CN(Cc1ccncc1)C(=O)c1ccc(COc2ccccc2C#N)o1`, the pKi entry (in experiment [3]; in the experiment filed under Homo sapiens) was “inactive” throughout.

Turning to `O=C(CCCn1nnc2ccccc2c1=O)NCc1ccccn1`, the pKi entry (in experiment [3]; in the experiment filed under Homo sapiens) was “inactive” in each case.

`O=C(c1ccccc1Cc1ccccc1)N1CCN(Cc2csc(-c3ccco3)n2)CC1`: the pEC50 result in experiment [1] was “inactive”. For the same molecule, the affinity in experiment [2] corresponds to a Ki of 14.8 µM.

Regarding `O=C1N(Cc2ccc(F)cc2)C[C@H]2CN(Cc3nccs3)CCN12`, the pKi result (in experiment [3]; in the experiment listed under Homo sapiens) was “inactive” each time.

`O=C1c2oc3ccc(Cl)cc3c(=O)c2[C@H](c2cccc([N+](=O)[O-])c2)N1Cc1ccccc1`: the pKi result (in experiment [3]; in the experiment filed under Homo sapiens) was “inactive” throughout.

On to `COc1cccc(COc2ccc(-c3noc(-c4ccco4)n3)cc2OC)c1`, for which the pKi entry (in experiment [3]; in the experiment listed under Homo sapiens) was “inactive” each time.

Regarding `O=C(CCCn1cnc2ccccc2c1=O)NCc1ccccn1`, the pKi entry (in experiment [3]; in the experiment listed under Homo sapiens) was “inactive” throughout.

As for `COc1cc2cc(C(=O)N3CCN(Cc4ccc5c(c4)OCO5)CC3)c(=O)oc2cc1OC`, the pKi result (in experiment [3]; in the experiment listed under Homo sapiens) was “inactive” each time.

For the molecule `O=C(C1CC1)N1CCC[C@@H](Cn2cc(-c3cnc(-c4ccco4)nc3)nn2)C1`, the pKi result (in experiment [3]; in the experiment filed under Homo sapiens) was “inactive” in each case.

(Values after ChEMBL document CHEMBL4725416, “Structure-Based Discovery of Novel Ligands for the Orexin 2 Receptor” (J Med Chem, 2020).)
